In publication PMC3277506, “Extra-Renal Elimination of Uric Acid via Intestinal Efflux Transporter BCRP/ABCG2” (PLoS ONE, 2012):
Like-named read-outs stand apart in the source and are kept apart here.

Assays:
hBCRP = biological target: T1, hBCRP (Homo sapiens, UniProt Q9UNQ0); set-up: method as in PMID 20368174; conditions: read-out: Km of uric acid to hBCRP; cited from earlier work
T1 construct: purchased GenoMembrane Inc. (Yokohama, Japan); host or cells: Sf9 cells
T1 sequence (Q9UNQ0 1-655): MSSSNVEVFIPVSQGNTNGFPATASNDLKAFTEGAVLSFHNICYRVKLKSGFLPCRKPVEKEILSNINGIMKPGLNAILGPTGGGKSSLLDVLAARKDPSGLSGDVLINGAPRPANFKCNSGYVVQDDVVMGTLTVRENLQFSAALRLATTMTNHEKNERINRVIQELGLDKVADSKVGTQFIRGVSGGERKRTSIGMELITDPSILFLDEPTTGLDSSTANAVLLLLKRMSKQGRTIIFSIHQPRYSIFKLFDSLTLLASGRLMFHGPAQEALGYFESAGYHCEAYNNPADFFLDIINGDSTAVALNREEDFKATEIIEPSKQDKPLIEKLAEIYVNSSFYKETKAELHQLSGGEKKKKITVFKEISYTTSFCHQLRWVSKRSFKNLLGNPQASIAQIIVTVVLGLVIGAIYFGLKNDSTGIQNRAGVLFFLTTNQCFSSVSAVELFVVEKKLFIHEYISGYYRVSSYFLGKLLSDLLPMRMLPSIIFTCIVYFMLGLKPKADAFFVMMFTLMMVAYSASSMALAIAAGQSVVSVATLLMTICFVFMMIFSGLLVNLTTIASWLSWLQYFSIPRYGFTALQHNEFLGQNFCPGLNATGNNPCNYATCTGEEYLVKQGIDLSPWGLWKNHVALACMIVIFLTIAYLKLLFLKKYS

[1] = Bidirectional transcellular transport of [14C]uric acid in Caco-2 cells; format: in vitro ADME, human; conditions: human, Control (no inhibitor)
Method: Caco-2 cells were obtained from the American Type Culture Collection (Rockville, MD). Caco-2 cells were cultured in Dulbecco's modified Eagle's medium (D-MEM) (Invitrogen, Carlsbad, CA) supplemented with 10% (v/v) fetal bovine serum (Invitrogen), 100 units/mL benzylpenicillin, 100 µg/mL streptomycin, 1% (v/v) MEM non-essential amino acid solution (Invitrogen) at 37°C under an atmosphere of 5% CO2 in air. For bidirectional transport studies, Caco-2 cells were cultured on Transwell filter membrane inserts (BD Falcon, surface area 0.9 cm^2 and pore size 3 µm) at a density of 6.4×10^4 cells/cm^2 for 21 days before use for each experiment. […] Inhibitor was added to only apical side. Transport of [^14C]uric acid was measured in two directions, namely apical (AP)-to-basal (BL) and BL-to-AP directions. An aliquot of transport buffer was obtained from the donor side at 5 min for measurement of initial concentration, and from the receiver side at 30, 60, 90 and 120 min. Transport studies were performed at 37°C and pH 7.4.
The apparent permeability (Papp, cm/sec) of [^14C]uric acid across the cell monolayer was calculated using the following equation: [drawing 4] where Q is the amount of [^14C]uric acid transported over time t. Cd is the initial concentration in the donor side and A is the surface area of membrane.

[2] = Recovery of [14C]uric acid after intravenous administration in oxonate-treated rats; format: in vivo; conditions: percentage of dose; for dose excreted: male, Wistar, rat, iv, 2 µCi/rat
Method: Male Wistar rats (280±30 g body weight) used in the present study were treated with potassium oxonate, a uric acid oxidase (uricase) inhibitor. Oxonate-treated rats were established as described previously, [48]. Briefly, rats were anesthetized with 50% urethane (2 mL/kg) and infused with 0.9% NaCl, 0.5% oxonate and 4% mannitol solution from the femoral vein at the flow rate of 3 mL/hr. As a bolus, 0.9% NaCl, 1.5% oxonate and 4% mannitol solution was administered from the jugular vein at 6 mL/kg. After equilibration for 80 min, blood, urine and bile samples were collected at 20-min intervals. When [^14C]uric acid (2 µCi/rat) was used, it was intravenously injected from the jugular vein after oxonate treatment for 80 min. In order to suppress the uricolysis of [^14C]uric acid by intestinal flora, animals received orally non-absorbed antibiotics, polymyxin B, kanamycin, and vancomycin at daily doses of 50, 50 and 20 mg/kg, respectively, for 7 days before this animal study. Urine and bile were collected at 20-min intervals, and blood samples were drawn at 1, 5, 10, 20, 40, 60, 80, 100 and 120 min. Urine and bile were collected from bladder and bile ducts, respectively, and blood from the jugular vein. In mice, urine was collected for 24 hours by using metabolic cages (Natsume, Tokyo, Japan).

efflux ratio at 120 min ([1]; Caco-2, pH 7.4, BL-to-AP / AP-to-BL permeability): 2.13 ± 0.19
Papp A→B at 120 min ([1]; Caco-2 monolayer, 37°C, pH 7.4, read-out: Permeability AP to BL): 8.1 ± 0.2 nm/s
Papp B→A at 120 min ([1]; Caco-2 monolayer, 37°C, pH 7.4, read-out: Permeability BL to AP): 17.3 ± 1.1 nm/s
dose excreted ([2]; bile + intestine, up to 120 min, read-out: Recovery of [14C]uric acid, Bile+Intestine): 9.58%
dose excreted ([2]; bile, up to 120 min, read-out: Recovery of [14C]uric acid, Bile): 0.68%
dose excreted ([2]; urine, up to 120 min, read-out: Recovery of [14C]uric acid, Urine): 42.6%
Recovery of [14C]uric acid, Cp×Vd (remaining in the body) ([2]; iv 2 µCi/rat, 2 hrs after administration, rough estimation from distribution volume and plasma concentration): 4.55%
Recovery of [14C]uric acid, Intestine (luminal contents) ([2]; iv 2 µCi/rat, up to 120 min): 8.90%
Recovery of [14C]uric acid, Urine ([2]; iv 2 µCi/rat, up to 120 min): 42.58%
Structure (SMILES): O=c1[nH]c(=O)c2[nH]c(=O)[nH]c2[nH]1 [uric acid]
Km (hBCRP): 8.24 mM
